Where two headings read alike, the source gives them in different places.
Columns and labels:
[1] = cited from earlier work
[2] = system: Mycobacterium tuberculosis; details: cited from earlier work
[3] = BALB/c, single 25 mg/kg oral dose of BDQ
[4] = lung; single dose of 25 mg/kg BDQ; BALB/c and C3HeB/FeJ
[5] = C3HeB/FeJ
[6] = lesion (type I), single 25 mg/kg oral dose of BDQ
[7] = plasma, single 25 mg/kg oral dose of BDQ
[8] = uninvolved lung, single 25 mg/kg oral dose of BDQ
[9] = whole lung, single 25 mg/kg oral dose of BDQ

## CNCCC(O)(c1cccc2ccccc12)C(c1ccccc1)c1cc2cc(Br)ccc2nc1OC (stereo not shown) [M2, N-desmethyl-BDQ]
[1]
  protein bound: more than 99%
[2]
  MIC relative to BDQ: approximately five times higher than that of BDQ
[3]; lesion (cellular non-necrotizing, type III)
  Cmax: 82.7 µg/g
[3]; lesion (type III)
  AUC168h: 7619 µg·h/g
  Tmax: 24 h
  t1/2: 90.7 h
[3]; plasma
  AUC168h: 57300 ng·h/mL
  Cmax: 760 ng/mL
  Tmax: 8 h
[3]; plasma, 72–168 h terminal
  t1/2: 59.8 h
[3]; uninvolved lung
  AUC168h: 8825 µg·h/g
  Cmax: 111.8 µg/g
  Tmax: 24 h
  t1/2: 69.7 h
[3]; whole lung
  AUC168h: 7207 µg·h/g
  Cmax: 69.5 µg/g
  Tmax: 24 h
  t1/2: 90.6 h
[4]
  tmax by MALDI-MSI: 24 h
[5]; 8 h following a single 25 mg/kg dose of BDQ, preliminary
  concentration in dissected caseum of type I granulomas (LC/MS/MS): 587.5 ng/g
[5]; lesion (caseous necrotic granuloma, type I), single 25 mg/kg oral dose of BDQ
  Cmax: 26.8 µg/g
[5]; [6]
  AUC168h: 2848 µg·h/g
  Tmax: 24 h
  t1/2: 98.6 h
[5]; [7]
  AUC168h: 69300 ng·h/mL
  Cmax: 700 ng/mL
  Tmax: 24 h
  plasma exposure (AUC168h) as printed in the discussion: 69.3 µg·h/g
[5]; plasma, single 25 mg/kg oral dose of BDQ, 72–168 h terminal
  t1/2: 55.9 h
[5]; [8]
  AUC168h: 4895 µg·h/g
  Cmax: 46.9 µg/g
  Tmax: 24 h
  t1/2: 89.4 h
[5]; [9]
  AUC168h: 5254 µg·h/g
  Cmax: 45.4 µg/g
  Tmax: 24 h
  t1/2: 134.7 h

Source: publication PMC4874602 (ACS Infectious Diseases, 2016)
